# Reference: ChEMBL document CHEMBL1201862, “PubChem BioAssay data set” (2004)
#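 Compound exposure: 48 hours, 5 concentrations, 96-well plates. GI50: concentration for 50% inhibition of growth.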 Calls of active or inactive are those of the source. Cut-off read from the data, not from the text of the source: active = GI50 up to about 1.1 µM and inactive = higher.
# Experiments:
# Test in all cases: NCI tumour cell line growth inhibition, 48 h
# 786-0 = system: 786-0
# A549 = system: A549
# ACHN = system: ACHN
# CAKI-1 = system: CAKI-1
# CCRF-CEM = system: CCRF-CEM
# COLO 205 = system: COLO 205
# DLD-1 = system: DLD-1
# DMS-114 = system: DMS-114
# DMS-273 = system: DMS-273
# EKVX = system: EKVX
# HCC 2998 = system: HCC 2998
# HCT-116 = system: HCT-116
# HCT-15 = system: HCT-15
# HL-60 = system: HL-60
# HOP-18 = system: HOP-18
# HOP-62 = system: HOP-62
# HOP-92 = system: HOP-92
# HT-29 = system: HT-29
# IGROV-1 = system: IGROV-1
# K562 = system: K562
# KM-20L2 = system: KM-20L2
# KM12 = system: KM12
# LOX IMVI = system: LOX IMVI
# M14 = system: M14
# M19-MEL = system: M19-MEL
# MOLT-4 = system: MOLT-4
# Malme-3M = system: Malme-3M
# NCI-H226 = system: NCI-H226
# NCI-H23 = system: NCI-H23
# NCI-H460 = system: NCI-H460
# NCI-H522 = system: NCI-H522
# OVCAR-3 = system: OVCAR-3
# OVCAR-4 = system: OVCAR-4
# OVCAR-5 = system: OVCAR-5
# OVCAR-8 = system: OVCAR-8
# RPMI-8226 = system: RPMI-8226
# SF-268 = system: SF-268
# SF-295 = system: SF-295
# SF-539 = system: SF-539
# SK-MEL-28 = system: SK-MEL-28
# SK-MEL-2 = system: SK-MEL-2
# SK-MEL-5 = system: SK-MEL-5
# SK-OV-3 = system: SK-OV-3
# SN12C = system: SN12C
# SNB-19 = system: SNB-19
# SNB-75 = system: SNB-75
# SNB-78 = system: SNB-78
# SR = system: SR
# SW-620 = system: SW-620
# TK-10 = system: TK-10
# U-251 = system: U-251
# UACC-62 = system: UACC-62
# UO-31 = system: UO-31
# XF498 = system: XF498
# LXFL 529 = system: LXFL 529
# UACC-257 = system: UACC-257
smiles,measurement,setting,value
C=C1C(=O)OC2(C)C3CCC(C3)C12 (configuration not stated),GI50,786-0,47.9 µM (inactive)
same,GI50,A549,> 100 µM (inactive)
same,GI50,ACHN,> 100 µM (inactive)
same,GI50,CAKI-1,30.1 µM (inactive)
same,GI50,CCRF-CEM,24.8 µM (inactive)
same,GI50,COLO 205,23.1 µM (inactive)
same,GI50,DLD-1,51.1 µM (inactive)
same,GI50,DMS-114,46.6 µM (inactive)
same,GI50,DMS-273,68.4 µM (inactive)
same,GI50,EKVX,81.8 µM (inactive)
same,GI50,HCC 2998,66.1 µM (inactive)
same,GI50,HCT-116,37.6 µM (inactive)
same,GI50,HCT-15,60.7 µM
same,GI50,HL-60,19.9 µM (inactive)
same,GI50,HOP-18,> 100 µM (inactive)
same,GI50,HOP-62,> 100 µM (inactive)
same,GI50,HOP-92,29 µM (inactive)
same,GI50,HT-29,34.9 µM (inactive)
same,GI50,IGROV-1,> 100 µM (inactive)
same,GI50,K562,33.3 µM (inactive)
same,GI50,KM-20L2,45.1 µM (inactive)
same,GI50,KM12,43.4 µM (inactive)
same,GI50,LOX IMVI,80.2 µM (inactive)
same,GI50,M14,27.7 µM (inactive)
same,GI50,M19-MEL,44.8 µM (inactive)
same,GI50,MOLT-4,34 µM (inactive)
same,GI50,Malme-3M,44.1 µM (inactive)
same,GI50,NCI-H226,> 100 µM (inactive)
same,GI50,NCI-H23,30.8 µM (inactive)
same,GI50,NCI-H460,33 µM (inactive)
same,GI50,NCI-H522,21.7 µM (inactive)
same,GI50,OVCAR-3,53.5 µM (inactive)
same,GI50,OVCAR-4,54.5 µM (inactive)
same,GI50,OVCAR-5,> 100 µM (inactive)
same,GI50,OVCAR-8,36 µM (inactive)
same,GI50,RPMI-8226,34.4 µM (inactive)
same,GI50,SF-268,69.2 µM (inactive)
same,GI50,SF-295,> 100 µM (inactive)
same,GI50,SF-539,98.2 µM (inactive)
same,GI50,SK-MEL-28,> 100 µM (inactive)
same,GI50,SK-MEL-2,39.4 µM (inactive)
same,GI50,SK-MEL-5,87.1 µM (inactive)
same,GI50,SK-OV-3,> 100 µM (inactive)
same,GI50,SN12C,57.8 µM (inactive)
same,GI50,SNB-19,> 100 µM (inactive)
same,GI50,SNB-75,47.1 µM (inactive)
same,GI50,SNB-78,34.4 µM (inactive)
same,GI50,SR,29.6 µM (inactive)
same,GI50,SW-620,47.2 µM (inactive)
same,GI50,TK-10,36.3 µM (inactive)
same,GI50,U-251,> 100 µM (inactive)
same,GI50,UACC-62,63.8 µM (inactive)
same,GI50,UO-31,> 100 µM (inactive)
same,GI50,XF498,29.1 µM (inactive)
[O-]c1c2cc(-[n+]3c(-c4ccccc4)cc(-c4ccccc4)cc3-c3ccccc3)cc1COCCOCCOCCOCCOC2,GI50,786-0,54.5 µM (inactive)
same,GI50,A549,60 µM (inactive)
same,GI50,ACHN,> 100 µM (inactive)
same,GI50,CAKI-1,> 100 µM (inactive)
same,GI50,CCRF-CEM,43.6 µM (inactive)
same,GI50,COLO 205,18.7 µM (inactive)
same,GI50,DLD-1,44 µM (inactive)
same,GI50,DMS-273,45.9 µM (inactive)
same,GI50,EKVX,33.9 µM (inactive)
same,GI50,HCC 2998,41.7 µM (inactive)
same,GI50,HCT-116,32.8 µM (inactive)
same,GI50,HCT-15,73.6 µM
same,GI50,HL-60,31.8 µM (inactive)
same,GI50,HOP-18,57.3 µM (inactive)
same,GI50,HOP-62,37 µM (inactive)
same,GI50,HOP-92,26 µM (inactive)
same,GI50,HT-29,35.6 µM (inactive)
same,GI50,K562,34 µM (inactive)
same,GI50,KM-20L2,31.3 µM (inactive)
same,GI50,KM12,20.4 µM (inactive)
same,GI50,LOX IMVI,43 µM (inactive)
same,GI50,LXFL 529,21.2 µM (inactive)
same,GI50,M14,37.4 µM (inactive)
same,GI50,M19-MEL,30.8 µM (inactive)
same,GI50,MOLT-4,32.1 µM (inactive)
same,GI50,Malme-3M,34.2 µM (inactive)
same,GI50,NCI-H226,> 100 µM (inactive)
same,GI50,NCI-H23,41.9 µM (inactive)
same,GI50,NCI-H522,35.6 µM (inactive)
same,GI50,OVCAR-4,59.4 µM (inactive)
same,GI50,OVCAR-5,> 100 µM (inactive)
same,GI50,OVCAR-8,31.5 µM (inactive)
same,GI50,SF-268,29 µM (inactive)
same,GI50,SF-295,43.8 µM (inactive)
same,GI50,SF-539,33 µM (inactive)
same,GI50,SK-MEL-28,18 µM (inactive)
same,GI50,SK-MEL-2,21.7 µM (inactive)
same,GI50,SK-OV-3,57.8 µM (inactive)
same,GI50,SN12C,38.8 µM (inactive)
same,GI50,SNB-19,73.5 µM (inactive)
same,GI50,SNB-75,41.7 µM (inactive)
same,GI50,SR,26.2 µM (inactive)
same,GI50,SW-620,48.9 µM (inactive)
same,GI50,TK-10,57.5 µM (inactive)
same,GI50,U-251,38.8 µM (inactive)
same,GI50,UACC-257,24 µM (inactive)
same,GI50,UACC-62,19.5 µM (inactive)
same,GI50,UO-31,85.3 µM (inactive)
